For orientation: IC50 means the concentration that gives 50% inhibition. Read a low IC50 as higher potency.

The values that follow come from patent publication US20240327407A1, “NOVEL INHIBITORS OF AUTOTAXIN” (CADILA HEAL THCARE LIMITED, priority 2021, published 2024).

In this assay the target is ATX (Mus musculus (Mouse), UniProt Q9R1E6). Briefly: Mice serum ATX inhibitory activity (IC50 determination). The format is biochemical.

The compound `Cc1ccnc(C(=O)N[C@@H](C(=O)N2CCC3(CC2)CN(C)CC3c2cccnc2)C(C)C)c1` (stereo partly drawn) [Compound 162, 4-methyl-N-((2R)-3-methyl-1-(2-methyl-4-(pyridin-3-yl)-2,8-diazaspiro[4.5]decan-8-yl)-1-oxobutan-2-yl)picolinamide] gave a concentration for half-maximal inhibition (IC50) of 10.2 nM.

`CC(C)[C@@H](NC(=O)c1cc(C(F)(F)F)ccc1F)C(=O)N1CCC2(CC1)CC(=O)NCC2c1ccccc1` (stereo partly drawn) [Compound 163, 2-fluoro-N-((2R)-3-methyl-1-oxo-1-(10-oxo-7-phenyl-3,9-diazaspiro[5.5]undecan-3-yl)butan-2-yl)-5-(trifluoromethyl)benzamide]: the IC50 was 3.5 nM. The result for `CC(C)[C@@H](NC(=O)c1cc(C(F)(F)F)ccc1F)C(=O)N1CCC2(CC1)CC(=O)NCC2c1ccc(F)cc1` (stereo partly drawn) [Compound 164, 2-fluoro-N-((2R)-1-(7-(4-fluorophenyl)-10-oxo-3,9-diazaspiro[5.5]undecan-3-yl)-3-methyl-1-oxobutan-2-yl)-5-(trifluoromethyl)benzamide] reads 6.5 nM; that for `CC(C)[C@@H](NC(=O)c1cc(C(F)(F)F)ccc1F)C(=O)N1CCC2(CC1)CC(=O)N(C)CC2c1ccccc1` (stereo partly drawn) [Compound 174, 2-fluoro-N-((2R)-3-methyl-1-(9-methyl-10-oxo-7-phenyl-3,9-diazaspiro[5.5]undecan-3-yl)-1-oxobutan-2-yl)-5-(trifluoromethyl)benzamide], 11.2 nM; that for `CC(C)[C@@H](NC(=O)c1cc(C(F)(F)F)ccc1F)C(=O)N1CCC2(CC1)CC(=O)N(C)CC2c1ccc(F)cc1` (stereo partly drawn) [Compound 176, 2-fluoro-N-((2R)-1-(7-(4-fluorophenyl)-9-methyl-10-oxo-3,9-diazaspiro[5.5]undecan-3-yl)-3-methyl-1-oxobutan-2-yl)-5-(trifluoromethyl)benzamide], 7.5 nM.

The compound `CCN1CC(c2ccc(F)cc2)C2(CCN(C(=O)[C@H](NC(=O)c3cc(C(F)(F)F)ccc3F)C(C)C)CC2)CC1=O` (stereo partly drawn) [Compound 177, N-((2R)-1-(9-ethyl-7-(4-fluorophenyl)-10-oxo-3,9-diazaspiro[5.5]undecan-3-yl)-3-methyl-1-oxobutan-2-yl)-2-fluoro-5-] yielded an IC50 of 17.2 nM. On to `CC(C)[C@H](NC(=O)c1cc(C(F)(F)F)ccc1F)C(=O)N1CCC2(CC1)CC(=O)N(C)CC2c1ccccc1` (stereo partly drawn) [Compound 185, 2-fluoro-N-((2S)-3-methyl-1-(9-methyl-10-oxo-7-phenyl-3,9-diazaspiro-[5.5]undecan-3-yl)-1-oxobutan-2-yl)-5-(trifluoromethyl)benzamide], for which half-maximal inhibition (IC50) was put at 12 nM. The result for `Cc1ccnc(C(=O)N[C@@H](C(=O)N2CCC3(CC2)CC(=O)N(C)CC3c2ccccc2)C(C)C)c1` (some centres unmarked) [Compound 194] reads 15.9 nM; that for `CC(C)[C@@H](NC(=O)c1cc(C(F)(F)F)ccc1F)C(=O)N1CCC2(CCN(C)CC2c2ccccc2)CC1` (stereo partly drawn) [Compound 220, 2-fluoro-N-((2R)-3-methyl-1-(9-methyl-7-phenyl-3,9-diazaspiro[5.5]-undecan-3-yl)-1-oxobutan-2-yl)-5-(trifluoromethyl)benzamide], 9.9 nM; that for `CC(C)[C@@H](NC(=O)c1cc(C(F)(F)F)ccc1F)C(=O)N1CCC2(CCN(C)CC2c2ccc(F)cc2)CC1` (stereo partly drawn) [Compound 221, 2-fluoro-N-((2R)-1-(7-(4-fluorophenyl)-9-methyl-3,9-diazaspiro[5.5]-undecan-3-yl)-3-methyl-1-oxobutan-2-yl)-5-(trifluoromethyl)benzamide], 5.1 nM.

For the compound `CCc1nc2c(C)cc(N3CCN(CC(=O)N4CC(O)C4)CC3)cn2c1N(C)c1nc(-c2ccc(F)cc2)c(C#N)s1` [GLPG1690], the half-maximal inhibitory concentration (IC50) is 508 nM.
